Results as given in patent US20110039824A1, “1,2,3,6-tetrahydroazepino[4,5-b]indole-5-carboxylate nuclear receptor inhibitors” (Wyeth, priority 2008, published 2011).

Columns and labels:
CYP450 2C9 = CYP450 2C9 (Homo sapiens, UniProt P11712); assay: CYP450 2C9 inhibition; format: in vitro ADME
hERG = hERG (Homo sapiens, UniProt Q12809); assay: hERG function; conditions: values printed as concentrations; read-out: hERG function (% Inh. @ 10 μM)
LDLR KO Mouse Model = assay: Mouse serum triglyceride (TG) and cholesterol levels in LDLR -/- mice; format: in vivo; conditions: daily oral gavage 7 days
Description: Eight-week old LDLR −/−mice were purchased from Jackson Laboratories and maintained on a chow diet. Some LDLR −/−mice were fed a western diet (AlN-76A; Purina Test Diets) as indicated. All mice were treated by daily oral gavage with vehicle or varying concentrations of compound for 7 days. On the last day after the final dose, the food was removed to allow a 3 hr fast and serum was harvested for analysis. Serum TG and cholesterol levels were determined using a Roche 912 clinical chemistry analyzer and expressed as mg/dL.

[1] = target: T1, Progesterone Receptor (PR) (Homo sapiens, UniProt P06401); assay: Progesterone receptor (PR) antagonism, alkaline phosphatase assay in T47D cells; format: cell-based; conditions: percent inhibition @ 10 μM vs 1 nM progesterone
T1 sequence (P06401 679-933 limits assumed): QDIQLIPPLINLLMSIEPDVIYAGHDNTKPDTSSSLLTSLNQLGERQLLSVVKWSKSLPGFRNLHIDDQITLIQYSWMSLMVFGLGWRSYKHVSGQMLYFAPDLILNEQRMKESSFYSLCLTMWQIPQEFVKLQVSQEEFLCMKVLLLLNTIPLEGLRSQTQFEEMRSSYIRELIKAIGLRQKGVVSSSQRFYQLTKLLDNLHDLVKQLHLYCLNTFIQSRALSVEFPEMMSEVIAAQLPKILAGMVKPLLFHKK
Description: DMEM:F12 (1:1) (GIBCO, BRL) supplemented with 5% (v/v) charcoal stripped fetal bovine serum (not heat-inactivated), 100 U/ml penicillin, 100 jig/ml streptomycin, and 2 mM GlutaMax (GIBCO, BRL).
I. 0.1M Tris-HCl, pH 9.8, containing 0.2% Triton X-100 II. 0.1 M Tris-HCl, pH 9.8, containing 4 mM p-nitrophenyl phosphate (Sigma).
Frozen T47D cells were thawed in a 37° C. water bath and diluted to 280,000 cells/ml in culture medium. To each well in a 96-well plate (Falcon, Becton Dickinson Labware), 180 μl of diluted cell suspension was added. Twenty μl of reference or test compounds diluted in the culture medium were then added to each well. When testing for progestin antagonist activity, reference antiprogestins or test compounds were added in the presence of 1 nM progesterone. The cells were incubated at 37° C. in a 5% CO2/humidified atmosphere for 24 hours.
At the end of treatment, the medium was removed from the plate. Fifty μl of assay buffer I was added to each well. The plates were shaken in a titer plate shaker for […]. Then 150 μl of assay buffer II was added to each well. Optical density measurements were taken at 5 min intervals for 30 min at a test wavelength of 405 nm.

Caco2 = Caco2 permeability; format: in vitro ADME
PAMPA permeability = format: in vitro ADME
HLM stability = format: in vitro ADME; conditions: human, liver microsomes; read-out: HLM (t1/2)
Gal4/hFXR fusion protein = target: T2, Gal4/hFXR fusion protein (Homo sapiens, UniProt Q96RI1); assay: Gal4/hFXR fusion protein agonist activity in human 293 cells (luciferase); format: cell-based; design: rows headed: hFXR agonist EC50; hFXR agonist eff. @ 30 μM; other: efficacy @ 30 μM; conditions: efficacy @ 30 μM
T2 sequence (Q96RI1 262-486 limits assumed): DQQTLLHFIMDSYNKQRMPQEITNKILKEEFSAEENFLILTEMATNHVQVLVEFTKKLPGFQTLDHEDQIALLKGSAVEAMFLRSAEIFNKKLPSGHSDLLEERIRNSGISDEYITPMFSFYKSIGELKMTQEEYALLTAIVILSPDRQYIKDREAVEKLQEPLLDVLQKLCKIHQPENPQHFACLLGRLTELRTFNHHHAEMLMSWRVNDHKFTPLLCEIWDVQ
Description: • Assay Medium: Phenol red free high glucose Dulbecco's modified Eagle's medium with sodium pyruvate (Cellgro, #17-205-CV) supplemented with 10% fetal bovine serum (Gibco, 16000-044), 1% glutamax (Gibco, 35050-061), 100 units/mL penicillin and 100 μg/mL streptomycin (Gibco, 15140-122). • Culturplate-96 (PerkinElmer, 6005688) • Lysis buffer (Promega, E3971) • Luciferase assay reagent (Promega E1483)
• 1. Compounds to be tested were prepared as 2× stocks in assay medium. • 2. […] The supernatant was removed and the cells were resuspended in 1 ml assay medium. The cells were counted and diluted in assay medium to 200,000 cells per ml. The cells were then plated at 10,000 cells per well in Culturplate-96 plates in 50 uL assay medium. The cells were incubated at 37° C. for approximately 1 hour. • 3. […] All assays included 1 uM GW4064 (Maloney et al., J. Med. Chem., 2000, 43(16), 2971-2974) as a reference standard. • 4. Cells were incubated for 24 hours at 37° C.
• 5. […] The plates were analyzed for luciferase activity with luciferase assay reagent (Promega E1483). Plates were read on Victor^3V instrument using the protocol “Shuguang Luciferase assay” (dispense volume=100 uL, plate type=“Packard Viewplate”, measurement height=8 mm from bottom of plate, 5 second read per well).
• 1. For agonist single point screening, data were analyzed in Excel. […]

[2] = Pharmacokinetics (bioavailability, half life); format: in vivo
[3] = Solubility in 2% Tween/0.5% MC aq.; format: physicochemical
CYP450 3A4 = CYP450 3A4 (Homo sapiens, UniProt P08684); assay: CYP450 3A4 inhibition; format: in vitro ADME
CYP450 3A4, sequence (P08684 whole entry): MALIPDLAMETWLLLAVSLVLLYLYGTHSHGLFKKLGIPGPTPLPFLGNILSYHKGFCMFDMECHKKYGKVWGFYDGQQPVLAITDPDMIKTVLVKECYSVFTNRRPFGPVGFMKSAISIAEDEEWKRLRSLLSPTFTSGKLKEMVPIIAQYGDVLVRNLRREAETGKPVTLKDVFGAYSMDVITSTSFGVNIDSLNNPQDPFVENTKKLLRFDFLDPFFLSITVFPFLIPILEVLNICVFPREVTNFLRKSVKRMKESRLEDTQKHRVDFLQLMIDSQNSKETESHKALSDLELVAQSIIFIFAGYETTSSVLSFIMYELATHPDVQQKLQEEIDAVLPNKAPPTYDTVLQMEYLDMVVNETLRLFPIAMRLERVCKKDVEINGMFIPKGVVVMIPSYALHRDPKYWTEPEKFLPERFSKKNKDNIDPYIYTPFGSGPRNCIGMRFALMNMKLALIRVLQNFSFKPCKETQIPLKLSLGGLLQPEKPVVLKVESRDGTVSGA

CYP450 2D6 = CYP450 2D6 (Homo sapiens, UniProt P10635); assay: CYP450 2D6 inhibition; format: in vitro ADME
CYP450 2D6, sequence (P10635 whole entry): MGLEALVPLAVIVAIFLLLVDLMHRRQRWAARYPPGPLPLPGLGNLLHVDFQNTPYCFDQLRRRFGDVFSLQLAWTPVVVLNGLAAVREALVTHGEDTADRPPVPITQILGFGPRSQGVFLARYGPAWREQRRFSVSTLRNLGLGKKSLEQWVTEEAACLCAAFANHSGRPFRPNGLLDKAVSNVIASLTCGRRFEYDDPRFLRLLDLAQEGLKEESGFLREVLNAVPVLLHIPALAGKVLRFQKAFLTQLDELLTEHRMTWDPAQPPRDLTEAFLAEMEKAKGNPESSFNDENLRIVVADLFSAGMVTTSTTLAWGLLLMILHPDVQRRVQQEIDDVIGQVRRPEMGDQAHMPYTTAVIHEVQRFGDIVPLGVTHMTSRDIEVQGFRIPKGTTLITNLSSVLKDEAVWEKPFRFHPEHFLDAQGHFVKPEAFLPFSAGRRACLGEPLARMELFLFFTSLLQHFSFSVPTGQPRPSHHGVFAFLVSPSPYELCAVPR

CYP450 2C9, sequence (P11712 whole entry): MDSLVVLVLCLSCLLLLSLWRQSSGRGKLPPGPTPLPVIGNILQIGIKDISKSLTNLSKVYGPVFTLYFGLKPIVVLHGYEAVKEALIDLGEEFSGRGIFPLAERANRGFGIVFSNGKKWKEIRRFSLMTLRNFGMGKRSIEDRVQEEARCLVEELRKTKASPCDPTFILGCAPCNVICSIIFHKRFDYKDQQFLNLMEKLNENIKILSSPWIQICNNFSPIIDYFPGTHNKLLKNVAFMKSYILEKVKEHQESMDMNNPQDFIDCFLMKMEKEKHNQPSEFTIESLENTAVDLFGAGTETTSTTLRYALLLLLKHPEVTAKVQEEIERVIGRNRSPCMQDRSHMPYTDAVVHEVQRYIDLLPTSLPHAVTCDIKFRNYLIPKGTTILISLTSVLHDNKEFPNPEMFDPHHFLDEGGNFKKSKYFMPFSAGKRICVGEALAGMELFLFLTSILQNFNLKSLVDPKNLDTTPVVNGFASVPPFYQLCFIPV
hERG, sequence (Q12809 whole entry): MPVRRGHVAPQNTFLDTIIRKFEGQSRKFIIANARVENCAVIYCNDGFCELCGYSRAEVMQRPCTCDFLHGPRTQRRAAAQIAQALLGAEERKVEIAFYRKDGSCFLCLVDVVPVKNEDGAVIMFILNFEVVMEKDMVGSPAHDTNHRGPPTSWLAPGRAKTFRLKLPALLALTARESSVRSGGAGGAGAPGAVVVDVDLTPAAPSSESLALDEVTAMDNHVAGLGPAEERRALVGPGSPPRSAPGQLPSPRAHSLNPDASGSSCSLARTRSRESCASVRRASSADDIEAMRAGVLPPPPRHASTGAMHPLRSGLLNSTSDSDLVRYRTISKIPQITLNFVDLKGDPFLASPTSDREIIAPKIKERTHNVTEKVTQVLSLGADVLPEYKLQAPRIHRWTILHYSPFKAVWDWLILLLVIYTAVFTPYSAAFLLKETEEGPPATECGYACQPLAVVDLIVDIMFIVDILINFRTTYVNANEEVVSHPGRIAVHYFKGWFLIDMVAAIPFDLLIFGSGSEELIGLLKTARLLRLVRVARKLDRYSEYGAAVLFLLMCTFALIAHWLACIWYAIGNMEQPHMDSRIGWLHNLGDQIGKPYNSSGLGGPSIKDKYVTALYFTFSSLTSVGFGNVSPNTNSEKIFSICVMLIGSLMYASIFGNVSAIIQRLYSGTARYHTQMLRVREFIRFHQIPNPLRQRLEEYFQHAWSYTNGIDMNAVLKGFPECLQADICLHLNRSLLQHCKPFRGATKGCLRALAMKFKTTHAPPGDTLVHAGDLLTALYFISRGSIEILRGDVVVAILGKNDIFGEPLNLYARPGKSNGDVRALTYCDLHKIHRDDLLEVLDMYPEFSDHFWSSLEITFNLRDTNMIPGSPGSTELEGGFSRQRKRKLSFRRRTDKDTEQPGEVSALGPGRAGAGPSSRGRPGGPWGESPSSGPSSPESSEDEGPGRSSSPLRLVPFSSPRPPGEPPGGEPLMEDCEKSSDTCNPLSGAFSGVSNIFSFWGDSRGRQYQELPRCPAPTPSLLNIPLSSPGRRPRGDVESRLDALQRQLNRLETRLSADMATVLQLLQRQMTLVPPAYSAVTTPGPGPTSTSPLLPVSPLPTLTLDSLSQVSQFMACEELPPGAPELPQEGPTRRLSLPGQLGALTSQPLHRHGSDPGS

In the case of `CC(C)OC(=O)C1=CN(C(=O)c2ccc(F)c(F)c2)CC(C)(C)c2c1[nH]c1ccccc21` [Reference Compound 2, isopropyl-3-(3,4-difluorobenzoyl)-1,1-dimethyl-1,2,3,6-tetrahydroazepino[4,5-b]indole-5-carboxylate], the “CYP450 2C9 % I @ 3 μM” value (CYP450 2C9) is reported as 24%, the IC50 (hERG) is reported as greater than 10 µM and the “Reduction of Total Cholesterol in a LDLR KO Mouse Model (Female) @ 10 mpk” value (LDLR KO Mouse Model) is reported as 36%. The “Reduction of Triglycerides in a LDLR KO Mouse Model (Female) @ 10 mpk” value (from here on “Reduction of Triglycerides … (Female) @ 10 mpk”) (LDLR KO Mouse Model) was 39%, the “Reduction of Total Cholesterol in a LDLR KO Mouse Model (Male) @ 10 mpk” value (“Reduction of Total Cholesterol … (Male) @ 10 mpk” for short) (LDLR KO Mouse Model) was 47% and the “Reduction of Triglycerides in a LDLR KO Mouse Model (Male) @ 10 mpk” value (shortened to “Reduction of Triglycerides … (Male) @ 10 mpk”) (LDLR KO Mouse Model) was 71%. The “PR Antagonism (Alk. Phos. Assay @ 10 μM)” value [1] was 44% @ 10 μM, the Transport mechanism (Caco2) was “passive” and the “Caco2 Permeability (Pe × 10^−6) A-B” value (Caco2) was 0.5 × 10^−6. For the same compound, the “Caco2 Permeability (Pe × 10^−6) B-A” value (Caco2) was 0.5 × 10^−6, the “Caco2 Permeability, class” value (Caco2; class in words) was “Low” and the “PAMPA Permeability (Pe × 10^−6)” value (PAMPA permeability) was 0 × 10^−6. For the same compound, the half-life (HLM stability) was 18 min, the “hFXR agonist eff. @ 30 μM” value (Gal4/hFXR fusion protein) was 179% and the “Bioavailability (dosed in aqueous MC/Tween)” value [2] was “poor”. The “2% Tween/0.5% MC aq. sol. (mg/mL)” value [3] was 0.01 mg/mL, the “2% Tween/0.5% MC aq. sol. (μM)” value [3] was 22.0 µM and the “CYP450 3A4 % I @ 3 μM” value (CYP450 3A4) was 43%. For the same compound, the “CYP450 2D6 % I @ 3 μM” value (CYP450 2D6) was 5%.
In the case of `CC(C)OC(=O)C1=CN(C(=O)c2ccc(OCCCN3CCOCC3)cc2)CC(C)(C)c2c1[nH]c1cc(F)ccc21` [Example 30, Isopropyl 8-fluoro-1,1-dimethyl-3-[4-(3-morpholin-4-ylpropoxy)benzoyl]-1,2,3,6-tetrahydroazepino[4,5-b]indole-5-carboxylate], the “Reduction of Total Cholesterol in a LDLR KO Mouse Model (Female) @ 10 mpk” value (LDLR KO Mouse Model) is reported as 60%, the “Reduction of Triglycerides … (Female) @ 10 mpk” value (LDLR KO Mouse Model) is reported as 65% and the “Reduction of Total Cholesterol … (Male) @ 10 mpk” value (LDLR KO Mouse Model) is reported as 74%. For the same compound, the “Reduction of Triglycerides … (Male) @ 10 mpk” value (LDLR KO Mouse Model) was 78%, the “PR Antagonism (Alk. Phos. Assay @ 10 μM)” value [1] was 95% and the Transport mechanism (Caco2) was “passive”. The “Caco2 Permeability (Pe × 10^−6) A-B” value (Caco2) was 0.8 × 10^−6, the “Caco2 Permeability (Pe × 10^−6) B-A” value (Caco2) was 0.8 × 10^−6 and the “PAMPA Permeability (Pe × 10^−6)” value (PAMPA permeability) was 0.66 × 10^−6. For the same compound, the “2% Tween/0.5% MC aq. sol. (mg/mL)” value [3] was 0.20 mg/mL and the “2% Tween/0.5% MC aq. sol. (μM)” value [3] was 355.0 µM.
With `CC(C)OC(=O)C1=CN(C(=O)c2ccc(OCCCN3CCOCC3)cc2)CC(C)(C)c2c1[nH]c1ccccc21` [Reference Compound 1, 1-methylethyl-1,1-dimethyl-3-({4-[(3-morpholin-4-ylpropyl)oxy]phenyl}carbonyl)-1,2,3,6-tetrahydroazepino[4,5-b]indole-5-carboxylate] the “Reduction of Total Cholesterol in a LDLR KO Mouse Model (Female) @ 10 mpk” value (LDLR KO Mouse Model) was 40%, the “Reduction of Triglycerides … (Female) @ 10 mpk” value (LDLR KO Mouse Model) was 25% and the “Reduction of Total Cholesterol … (Male) @ 10 mpk” value (LDLR KO Mouse Model) was 49%. The “Reduction of Triglycerides … (Male) @ 10 mpk” value (LDLR KO Mouse Model) was 59%, the “PR Antagonism (Alk. Phos. Assay @ 10 μM)” value [1] was 90% and the Transport mechanism (Caco2) was “passive”. For the same compound, the “PAMPA Permeability (Pe × 10^−6)” value (PAMPA permeability) was 0 × 10^−6, the “2% Tween/0.5% MC aq. sol. (mg/mL)” value [3] was 0.19 mg/mL and the “2% Tween/0.5% MC aq. sol. (μM)” value [3] was 332.0 µM.
